From BindingDB's records for doi:10.1111/j.1747-0285.2009.00852.x (University of Jordan, 2009) come the findings set out here.

Broadly, the IC50 is the point on the concentration scale where inhibition reaches its midpoint. High values mean weaker potency in that assay, low ones greater potency in that assay.

In the assay the target is Reverse transcriptase (Human immunodeficiency virus 2, UniProt Q06347). The assay is described as follows: In Vitro Enzyme Assay. Particulars: pH 7.8; 37 °C. How it is done: The reverse transcriptase inhibitory activity of compound was evaluated by a non-radioactive colorimetric assay method. This procedure uses RT to synthesize DNA starting from the template/primer hybridpoly (A) x oligo (dT)15 and avoids the use of radio-labeled nucleotides.
Chain of Reverse transcriptase (Q06347 whole entry): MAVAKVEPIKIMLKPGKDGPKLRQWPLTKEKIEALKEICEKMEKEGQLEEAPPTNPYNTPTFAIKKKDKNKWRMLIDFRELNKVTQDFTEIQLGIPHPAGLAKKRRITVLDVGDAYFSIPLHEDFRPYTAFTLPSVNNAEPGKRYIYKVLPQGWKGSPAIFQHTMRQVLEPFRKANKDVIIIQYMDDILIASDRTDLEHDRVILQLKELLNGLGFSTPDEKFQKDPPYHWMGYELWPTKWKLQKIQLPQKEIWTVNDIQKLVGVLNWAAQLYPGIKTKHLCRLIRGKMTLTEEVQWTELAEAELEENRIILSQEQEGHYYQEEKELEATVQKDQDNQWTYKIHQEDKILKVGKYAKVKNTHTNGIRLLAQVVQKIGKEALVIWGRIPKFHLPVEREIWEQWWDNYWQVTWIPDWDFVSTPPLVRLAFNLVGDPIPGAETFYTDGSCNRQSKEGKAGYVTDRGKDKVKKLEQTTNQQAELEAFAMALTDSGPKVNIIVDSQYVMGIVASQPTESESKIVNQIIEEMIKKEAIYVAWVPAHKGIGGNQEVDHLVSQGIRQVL

Take `CCCC(=O)Oc1ccc(C(C)(C)C)cc1Br` [NCI Code, 6927]: half-maximal inhibition (IC50) was put at 335 µM. Regarding `CCCCN(CCCC)C(=O)c1ccc(Cl)cc1Cl` [NCI Code, 6050], the IC50 was 31.3 µM. As for `CCCCCCc1nc2c([nH]1)c(=O)n(C)c(=O)n2C` [NCI Code, 14129], the figure is 18.9 µM. With `Cc1ccc(S(=O)(=O)Oc2ccc(Cl)cc2Cl)cc1` [NCI Code, 4179], the IC50 was 87.1 µM. To `Cc1ccnc2c1NC(=O)c1cccnc1N2C1CC1` [BI-RG-587] belongs 4.2 µM.
